From US20180282281A1, “IMMUNOREGULATORY AGENTS” (FLEXUS BIOSCIENCES, INC., priority 2014, published 2018)

target: T1, human IDO1 (Homo sapiens, UniProt P14902); assay: HEK293 human IDO1 cell-based IDO inhibition assay; details: read-out: HEK Human IDO-1 Potency
T1 construct: expressed in transfected cells
Protocol: 1HEK293 cells were transfected with a pCDNA-based mammalian expression vector harboring human IDO1 cDNA (NM 002164.2) by electroporation. They were cultured in medium (DMEM with 10% FBS) containing 1 mg/ml G418 for two weeks. Clones of HEK293 cells that stably expressed human IDO1 protein were selected and expanded for IDO inhibition assay.
The human IDOL/HEK293 cells were seeded at 10,000 cells per 50 μL per well with RPMI/phenol red free media contains 10% FBS in a 384-well black wall clear bottom tissue culture plate (Matrix Technologies LLC) 100 nL of certain concentration of compound was then added to each well using ECHO liquid handling systems. The cells were incubated for 20 hours in 37° C. incubator with 5% CO2.
The compound treatments were stopped by adding Trichloroacetic Acid (Sigma-Aldrich) to a final concentration at 0.2%. The cell plate was further incubated at 50° C. for 30 minute. The equal volume supernatant (20 μL) and 0.2% (w/v) Ehrlich reagent (4-dimethylaminobenzaldehyde, Sigma-Aldrich) in glacial acetic acid were mixed in a new clear bottom 384-well plate. This plate was then incubated at room temperature for 30 minute. The absorbance at 490 nm was measured on Envision plate reader.

T1 sequence (P14902 whole entry): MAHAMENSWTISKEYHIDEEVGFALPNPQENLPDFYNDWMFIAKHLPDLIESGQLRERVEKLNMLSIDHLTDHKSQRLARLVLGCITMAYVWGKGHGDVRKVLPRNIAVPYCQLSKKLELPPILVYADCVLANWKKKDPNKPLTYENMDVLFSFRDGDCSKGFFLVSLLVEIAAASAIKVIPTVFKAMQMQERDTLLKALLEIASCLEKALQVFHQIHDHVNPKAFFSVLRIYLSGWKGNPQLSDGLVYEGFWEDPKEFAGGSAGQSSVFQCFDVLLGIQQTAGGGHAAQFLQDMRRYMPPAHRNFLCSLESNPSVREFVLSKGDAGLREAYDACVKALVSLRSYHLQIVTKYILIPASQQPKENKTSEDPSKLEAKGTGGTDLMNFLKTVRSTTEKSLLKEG

| SMILES | IC50 |
| --- | --- |
| CC(C(=O)O)c1ccc(C[C@@H](C(=O)Nc2ccc(Cl)cc2)[C@H]2CC[C@@H](c3ccnc4ccc(F)cc43)CC2)cc1 (mixture of isomers) [Example 137, 2-(4-((R)-3-((4-Chlorophenyl)amino)-2-((cis)-4-(6-fluoroquinolin-4-yl)cyclohexyl)-3-oxopropyl)phenyl)propanoic Acid] | < 50 nM |
| CCC(C(=O)Nc1ccc(Cl)cc1)C1CCC(c2ccnc3ccc(F)cc23)CC1 (mixture of isomers) [Example 154, N-(4-Chlorophenyl)-2-(4-(6-fluoroquinolin-4-yl)cyclohexyl)butanamide] | < 50 nM |
| CCC(C(=O)Nc1ccc(Cl)cc1)[C@H]1CC[C@H](Oc2ccnc3cc(C(F)(F)F)ccc23)CC1 (mixture of isomers) [Example 83, (±)—N-(4-Chlorophenyl)-2-((trans)-4-((7-(trifluoromethyl)quinolin-4-yl)oxy)cyclohexyl)butanamide] | < 250 nM |
| CCC(C(=O)Nc1ccc(Cl)cc1)[C@H]1CC[C@H](Oc2cc(C(F)(F)F)nc3ccccc23)CC1 (mixture of isomers) [Example 84, (±)—N-(4-Chlorophenyl)-2-((trans)-4-((2-(trifluoromethyl)quinolin-4-yl)oxy)cyclohexyl)butanamide] | > 250 nM |
| CCC(C(=O)Nc1ccc(Cl)cc1)[C@H]1CC[C@H](Oc2ccnc3ccccc23)CC1 (mixture of isomers) [Example 85, (±)—N-(4-Chlorophenyl)-2-((trans)-4-(quinolin-4-yloxy)cyclohexyl)butanamide] | < 50 nM |
| CCC(C(=O)Nc1ccc(Cl)cc1)[C@H]1CC[C@@H](Oc2cc(C(F)(F)F)nc3ccccc23)CC1 (mixture of isomers) [Example 88, (±)—N-(4-Chlorophenyl)-2-((cis)-4-((2-(trifluoromethyl)quinolin-4-yl)oxy)cyclohexyl)butanamide] | < 50 nM |
| CCC(C(=O)Nc1ccc(Cl)cc1)[C@H]1CC[C@@H](Oc2ccnc3ccc(C(F)(F)F)cc23)CC1 (mixture of isomers) [Example 89, (±)—N-(4-Chlorophenyl)-2-((cis)-4-((6-(trifluoromethyl)quinolin-4-yl)oxy)cyclohexyl)butanamide] | > 250 nM |
| Cc1ccc(NC(=O)C(C)N2CCC(Oc3ccc4nccc(Cl)c4c3)CC2)cc1 (racemic) [Example 92, (±)-2-(4-((4-Chloroquinolin-6-yl)oxy)piperidin-1-yl)-N-(p-tolyl)propanamide] | > 250 nM |
| CC(C(=O)Nc1ccc(Cl)cc1)N1CCC(Oc2ccnc3ccc(F)cc23)CC1 (racemic) [Example 96, (±)—N-(4-Chlorophenyl)-2-(4-((6-fluoroquinolin-4-yl)oxy)piperidin-1-yl)propanamide] | < 50 nM |
| CC(C)C(C(=O)Nc1ccc(Cl)cc1)N1CCC(Oc2ccnc3ccc(F)cc23)CC1 (racemic) [Example 102, (±)—N-(4-Chlorophenyl)-2-(4-((6-fluoroquinolin-4-yl)oxy)piperidin-1-yl)-3-methylbutanamide] | > 250 nM |
| CC(C(=O)Nc1ccc(Cl)cc1)N1CCN(c2ccnc3ccc(F)cc23)CC1 (racemic) [Example 126, (±)—N-(4-Chlorophenyl)-2-(4-(6-fluoroquinolin-4-yl)piperazin-1-yl)propanamide] | > 250 nM |
| CC(C(=O)Nc1ccc(Br)cc1)N1CCN(c2ccnc3ccc(F)cc23)CC1 (racemic) [Example 127, (±)—N-(4-Bromophenyl)-2-(4-(6-fluoroquinolin-4-yl)piperazin-1-yl)propanamide] | > 250 nM |
| CC(C(=O)Nc1ccccc1)N1CCN(c2ccnc3ccc(F)cc23)CC1 (racemic) [Example 128, (±)-2-(4-(6-Fluoroquinolin-4-yl)piperazin-1-yl)-N-phenylpropanamide] | > 250 nM |
| CCC(C(=O)Nc1ccc(Cl)cc1)N1CCN(c2ccnc3ccc(F)cc23)CC1 (racemic) [Example 131, (±)—N-(4-Chlorophenyl)-2-(4-(6-fluoroquinolin-4-yl)piperazin-1-yl)butanamide] | < 50 nM |
| CCC(C(=O)Nc1ccccc1)N1CCN(c2ccnc3ccc(F)cc23)CC1 (racemic) [Example 132, (±)-2-(4-(6-Fluoroquinolin-4-yl)piperazin-1-yl)-N-phenylbutanamide] | > 250 nM |
| COCC(C(=O)Nc1ccc(Cl)cc1)N1CCN(c2ccnc3ccc(F)cc23)CC1 (racemic) [Example 133, (±)—N-(4-Chlorophenyl)-2-(4-(6-fluoroquinolin-4-yl)piperazin-1-yl)-3-methoxypropanamide] | > 250 nM |
| COCC(C(=O)Nc1ccc(F)cc1)N1CCN(c2ccnc3ccc(F)cc23)CC1 (racemic) [Example 134, (±)—N-(4-Fluorophenyl)-2-(4-(6-fluoroquinolin-4-yl)piperazin-1-yl)-3-methoxypropanamide] | < 250 nM |

| SMILES | IC50 |
| --- | --- |
| CC(C(=O)Nc1ccc(Cl)cc1)C1CCC(c2ccnc3ccnn23)CC1 (racemic) [Example 143, (±)—N-(4-chlorophenyl)-2-(cis- and trans-4-(pyrazolo[1,5-a]pyrimidin-7-yl)cyclohexyl)propanamide] | < 250 nM |
| CC(C(=O)Nc1ccc(Cl)cc1)C1CCC(c2ccnc3ncccc23)CC1 (racemic) [Example 147, (±)-2-(Cis- and trans-4-(1,8-naphthyridin-4-yl)cyclohexyl)-N-(4-chlorophenyl)propanamide] | < 50 nM |
| CC(C(=O)Nc1ccc(Cl)cc1)C1CCC(c2ccnc3cn[nH]c23)CC1 (racemic) [Example 149, (±)-2-(Cis- and trans-4-(1H-pyrazolo[4,3-b]pyridin-7-yl)cyclohexyl)-N-(4-chlorophenyl)propanamide] | < 50 nM |
| CC(C(=O)Nc1ccc(Cl)cc1)[C@H]1CC[C@H](Oc2ccnc3ncccc23)CC1 (mixture of isomers) [Example 153, (±)-2-((trans)-4-((1,8-Naphthyridin-4-yl)oxy)cyclohexyl)-N-(4-chlorophenyl)propanamide] | < 50 nM |
| CC(C(=O)Nc1ccc(Cl)cc1)[C@]1(F)CC[C@H](c2ccnc3ccc(F)cc32)CC1 (mixture of isomers) [Example 233, (+/−)—N-(4-chlorophenyl)-2-(trans-1-fluoro-4-(6-fluoroquinolin-4-yl)cyclohexyl) propanamide] | < 50 nM |
| CCC(C(=O)Nc1ccc(Cl)cc1)C1CCN(c2ccnc3ccc(F)cc23)CC1 (racemic) [Example 243, (±)—N-(4-Chlorophenyl)-2-(1-(6-fluoroquinolin-4-yl)piperidin-4-yl)butanamide] | > 250 nM |
| CCCC(C(=O)Nc1ccc(Cl)cc1)N1CCN(c2ccnc3ccc(F)cc23)CC1 (racemic) [Example 244, (±)—N-(4-Chlorophenyl)-2-(4-(6-fluoroquinolin-4-yl)piperazin-1-yl)pentanamide] | < 250 nM |
| CCCC(C(=O)NC1(C)CCCCC1)N1CCN(c2ccnc3ccc(F)cc23)CC1 (racemic) [Example 247, (±)-2-(4-(6-Fluoroquinolin-4-yl)piperazin-1-yl)-N-(1-methylcyclohexyl)pentanamide] | > 250 nM |
| CCC(C(=O)Nc1ccc(Cl)cc1)[C@H]1CC[C@H](Oc2ccnc3cc(C(F)(F)F)ccc23)CC1 (single isomer, unassigned) [Example 83a, N-(4-Chlorophenyl)-2-((trans)-4-((7-(trifluoromethyl)quinolin-4-yl)oxy)cyclohexyl)-2-butanamide] | > 250 nM |
| CCC(C(=O)Nc1ccc(Cl)cc1)[C@H]1CC[C@H](Oc2ccnc3cc(C(F)(F)F)ccc23)CC1 (single isomer, unassigned) [Example 83b, N-(4-Chlorophenyl)-2-((trans)-4-((7-(trifluoromethyl)quinolin-4-yl)oxy)cyclohexyl)-2-butanamide] | < 250 nM |
| CC(C(=O)O)c1ccc(C[C@@H](C(=O)Nc2ccc(Cl)cc2)[C@H]2CC[C@@H](c3ccnc4ccccc43)CC2)cc1 (single isomer, unassigned) [Example 87a] | < 50 nM |
| CCC(C(=O)Nc1ccc(Cl)cc1)[C@H]1CC[C@@H](Oc2cc(C(F)(F)F)nc3ccccc23)CC1 (single isomer, unassigned) [Example 88a, N-(4-Chlorophenyl)-2-((cis)-4-((2-(trifluoromethyl)quinolin-4-yl)oxy)cyclohexyl)butanamide] | < 50 nM |
| CCC(C(=O)Nc1ccc(Cl)cc1)[C@H]1CC[C@@H](Oc2cc(C(F)(F)F)nc3ccccc23)CC1 (single isomer, unassigned) [Example 88b, N-(4-Chlorophenyl)-2-((cis)-4-((2-(trifluoromethyl)quinolin-4-yl)oxy)cyclohexyl)butanamide] | < 250 nM |
| CCC(C(=O)Nc1ccc(Cl)cc1)[C@H]1CC[C@@H](Oc2ccnc3ccc(C(F)(F)F)cc23)CC1 (single isomer, unassigned) [Example 89a, N-(4-Chlorophenyl)-2-((cis)-4-((6-(trifluoromethyl)quinolin-4-yl)oxy)cyclohexyl)butanamide] | < 250 nM |
| CCC(C(=O)Nc1ccc(Cl)cc1)[C@H]1CC[C@@H](Oc2ccnc3ccc(C(F)(F)F)cc23)CC1 (single isomer, unassigned) [Example 89b, N-(4-Chlorophenyl)-2-((cis)-4-((6-(trifluoromethyl)quinolin-4-yl)oxy)cyclohexyl)butanamide] | > 250 nM |
| CC(C(=O)Nc1ccc(Cl)cc1)N1CCC(Oc2ccc3nccc(Cl)c3c2)CC1 (single isomer, unassigned) [Example 93] | < 50 nM |
